Data reported in PubChem BioAssay (NCI).
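Five concentrations, 48 hours, 96-well plates. TGI marks complete inhibition of growth.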

What was measured:
Assay in all cases: NCI tumour cell line growth inhibition, 48 h
SF-295 CNS = system: SF-295 CNS
SK-MEL-2 melanoma = system: SK-MEL-2 melanoma
MOLT-4 leukemia = system: MOLT-4 leukemia
RPMI-8226 leukemia = system: RPMI-8226 leukemia
K-562 leukemia = system: K-562 leukemia
MDA-N = system: MDA-N
U251 CNS = system: U251 CNS
NCI-H226 lung = system: NCI-H226 lung
HT29 colon = system: HT29 colon
SF-268 CNS = system: SF-268 CNS
OVCAR-8 ovarian = system: OVCAR-8 ovarian
PC-3 prostate = system: PC-3 prostate
SK-MEL-28 melanoma = system: SK-MEL-28 melanoma
SK-OV-3 ovarian = system: SK-OV-3 ovarian
A498 renal = system: A498 renal
KM12 colon = system: KM12 colon
A549 NSCLC = system: A549 NSCLC
MALME-3M melanoma = system: MALME-3M melanoma
OVCAR-5 ovarian = system: OVCAR-5 ovarian
NCI-H23 lung = system: NCI-H23 lung
OVCAR-4 ovarian = system: OVCAR-4 ovarian
SK-MEL-5 melanoma = system: SK-MEL-5 melanoma
HCT-116 colon = system: HCT-116 colon
CAKI-1 renal = system: CAKI-1 renal
MDA-MB-435 = system: MDA-MB-435
NCI-H460 lung = system: NCI-H460 lung
SNB-19 CNS = system: SNB-19 CNS
HL-60(TB) leukemia = system: HL-60(TB) leukemia
ACHN renal = system: ACHN renal
UO-31 renal = system: UO-31 renal
RXF 393 renal = system: RXF 393 renal
SR leukemia = system: SR leukemia
UACC-257 melanoma = system: UACC-257 melanoma
EKVX NSCLC = system: EKVX NSCLC
UACC-62 melanoma = system: UACC-62 melanoma
SF-539 CNS = system: SF-539 CNS
MDA-MB-231 breast = system: MDA-MB-231 breast
TK-10 renal = system: TK-10 renal
HOP-62 NSCLC = system: HOP-62 NSCLC
BT-549 breast = system: BT-549 breast
IGROV1 ovarian = system: IGROV1 ovarian
T-47D breast = system: T-47D breast
OVCAR-3 ovarian = system: OVCAR-3 ovarian
COLO 205 colon = system: COLO 205 colon
M14 melanoma = system: M14 melanoma
CCRF-CEM leukemia = system: CCRF-CEM leukemia
SNB-75 CNS = system: SNB-75 CNS
HS 578T breast = system: HS 578T breast
MCF7 breast = system: MCF7 breast
NCI-H522 lung = system: NCI-H522 lung
NCI/ADR-RES ovarian = system: NCI/ADR-RES ovarian
LOX IMVI melanoma = system: LOX IMVI melanoma
HCT-15 colon = system: HCT-15 colon
SW-620 colon = system: SW-620 colon
HOP-92 NSCLC = system: HOP-92 NSCLC
786-0 renal = system: 786-0 renal
SN12C renal = system: SN12C renal
DU-145 prostate = system: DU-145 prostate

Q: For `COC(=O)[C@](C)(Cc1ccccc1)NC(=O)[C@@H](C)N1[C@@H](c2ccccc2)COC1(C)C`, which TGI (SF-295 CNS) is on record?
A: > 100 µM

Q: What about the TGI (SK-MEL-2 melanoma) of the same compound?
A: > 100 µM

Q: What about the TGI (MOLT-4 leukemia) of the same compound?
A: > 100 µM

Q: And the TGI (RPMI-8226 leukemia)?
A: > 100 µM

Q: What about the TGI (K-562 leukemia) of the same compound?
A: > 100 µM

Q: What about the TGI (MDA-N) of the same compound?
A: > 100 µM

Q: What about the TGI (U251 CNS) of the same compound?
A: > 100 µM

Q: What about the TGI (NCI-H226 lung) of the same compound?
A: > 100 µM

Q: And the TGI (HT29 colon)?
A: > 100 µM

Q: And the TGI (SF-268 CNS)?
A: > 100 µM

Q: And the TGI (OVCAR-8 ovarian)?
A: > 100 µM

Q: And the TGI (PC-3 prostate)?
A: > 100 µM

Q: What about the TGI (SK-MEL-28 melanoma) of the same compound?
A: > 100 µM

Q: What about the TGI (SK-OV-3 ovarian) of the same compound?
A: > 100 µM

Q: And the TGI (A498 renal)?
A: > 100 µM

Q: What about the TGI (KM12 colon) of the same compound?
A: > 100 µM

Q: What about the TGI (A549 NSCLC) of the same compound?
A: > 100 µM

Q: And the TGI (MALME-3M melanoma)?
A: > 100 µM

Q: What about the TGI (OVCAR-5 ovarian) of the same compound?
A: > 100 µM

Q: And the TGI (NCI-H23 lung)?
A: > 100 µM

Q: What about the TGI (OVCAR-4 ovarian) of the same compound?
A: > 100 µM

Q: What about the TGI (SK-MEL-5 melanoma) of the same compound?
A: > 100 µM

Q: And the TGI (HCT-116 colon)?
A: > 100 µM

Q: And the TGI (CAKI-1 renal)?
A: > 100 µM

Q: What about the TGI (MDA-MB-435) of the same compound?
A: > 100 µM

Q: What about the TGI (NCI-H460 lung) of the same compound?
A: > 100 µM

Q: And the TGI (SNB-19 CNS)?
A: > 100 µM

Q: And the TGI (HL-60(TB) leukemia)?
A: > 100 µM

Q: And the TGI (ACHN renal)?
A: > 100 µM

Q: And the TGI (UO-31 renal)?
A: > 100 µM

Q: And the TGI (RXF 393 renal)?
A: > 100 µM

Q: And the TGI (SR leukemia)?
A: > 100 µM

Q: What about the TGI (UACC-257 melanoma) of the same compound?
A: > 100 µM

Q: And the TGI (EKVX NSCLC)?
A: > 100 µM

Q: What about the TGI (UACC-62 melanoma) of the same compound?
A: > 100 µM

Q: And the TGI (SF-539 CNS)?
A: > 100 µM

Q: And the TGI (MDA-MB-231 breast)?
A: > 100 µM

Q: And the TGI (TK-10 renal)?
A: > 100 µM

Q: And the TGI (HOP-62 NSCLC)?
A: > 100 µM

Q: And the TGI (BT-549 breast)?
A: > 100 µM

Q: What about the TGI (IGROV1 ovarian) of the same compound?
A: > 100 µM

Q: And the TGI (T-47D breast)?
A: > 100 µM

Q: What about the TGI (OVCAR-3 ovarian) of the same compound?
A: > 100 µM

Q: What about the TGI (COLO 205 colon) of the same compound?
A: 52.2 µM

Q: And the TGI (M14 melanoma)?
A: > 100 µM

Q: What about the TGI (CCRF-CEM leukemia) of the same compound?
A: > 100 µM

Q: What about the TGI (SNB-75 CNS) of the same compound?
A: 75.8 µM

Q: And the TGI (HS 578T breast)?
A: > 100 µM

Q: What about the TGI (MCF7 breast) of the same compound?
A: > 100 µM

Q: And the TGI (NCI-H522 lung)?
A: 99.3 µM

Q: What about the TGI (NCI/ADR-RES ovarian) of the same compound?
A: > 100 µM

Q: What about the TGI (LOX IMVI melanoma) of the same compound?
A: > 100 µM

Q: And the TGI (HCT-15 colon)?
A: > 100 µM

Q: What about the TGI (SW-620 colon) of the same compound?
A: > 100 µM

Q: What about the TGI (HOP-92 NSCLC) of the same compound?
A: > 100 µM

Q: What about the TGI (786-0 renal) of the same compound?
A: > 100 µM

Q: With `Cn1c2ccc(C3=NCCN3)cc2c2cc(C3=NCCN3)ccc21` as the compound, how does the TGI (SF-295 CNS) read?
A: > 100 µM

Q: And the TGI (SK-MEL-2 melanoma)?
A: > 100 µM

Q: What about the TGI (MOLT-4 leukemia) of the same compound?
A: > 100 µM

Q: And the TGI (RPMI-8226 leukemia)?
A: > 100 µM

Q: And the TGI (K-562 leukemia)?
A: > 100 µM

Q: What about the TGI (MDA-N) of the same compound?
A: > 100 µM

Q: What about the TGI (U251 CNS) of the same compound?
A: > 100 µM

Q: What about the TGI (NCI-H226 lung) of the same compound?
A: > 100 µM

Q: What about the TGI (HT29 colon) of the same compound?
A: > 100 µM

Q: And the TGI (SF-268 CNS)?
A: > 100 µM

Q: And the TGI (OVCAR-8 ovarian)?
A: > 100 µM

Q: What about the TGI (PC-3 prostate) of the same compound?
A: > 100 µM

Q: What about the TGI (SK-MEL-28 melanoma) of the same compound?
A: > 100 µM

Q: And the TGI (SK-OV-3 ovarian)?
A: > 100 µM

Q: And the TGI (A498 renal)?
A: > 100 µM

Q: And the TGI (KM12 colon)?
A: > 100 µM

Q: What about the TGI (A549 NSCLC) of the same compound?
A: > 100 µM

Q: What about the TGI (MALME-3M melanoma) of the same compound?
A: 61 µM

Q: What about the TGI (OVCAR-5 ovarian) of the same compound?
A: > 100 µM

Q: And the TGI (NCI-H23 lung)?
A: > 100 µM

Q: What about the TGI (OVCAR-4 ovarian) of the same compound?
A: > 100 µM

Q: What about the TGI (SK-MEL-5 melanoma) of the same compound?
A: > 100 µM

Q: What about the TGI (HCT-116 colon) of the same compound?
A: > 100 µM

Q: And the TGI (CAKI-1 renal)?
A: > 100 µM

Q: What about the TGI (MDA-MB-435) of the same compound?
A: > 100 µM

Q: What about the TGI (NCI-H460 lung) of the same compound?
A: 25.9 µM

Q: What about the TGI (SNB-19 CNS) of the same compound?
A: > 100 µM

Q: What about the TGI (ACHN renal) of the same compound?
A: > 100 µM

Q: What about the TGI (UO-31 renal) of the same compound?
A: > 100 µM

Q: And the TGI (SN12C renal)?
A: > 100 µM

Q: What about the TGI (RXF 393 renal) of the same compound?
A: > 100 µM

Q: And the TGI (SR leukemia)?
A: > 100 µM

Q: And the TGI (UACC-257 melanoma)?
A: > 100 µM

Q: What about the TGI (EKVX NSCLC) of the same compound?
A: > 100 µM

Q: What about the TGI (SF-539 CNS) of the same compound?
A: > 100 µM

Q: What about the TGI (MDA-MB-231 breast) of the same compound?
A: > 100 µM

Q: And the TGI (TK-10 renal)?
A: > 100 µM

Q: And the TGI (DU-145 prostate)?
A: > 100 µM

Q: What about the TGI (HOP-62 NSCLC) of the same compound?
A: > 100 µM

Q: What about the TGI (BT-549 breast) of the same compound?
A: > 100 µM

Q: And the TGI (IGROV1 ovarian)?
A: > 100 µM

Q: And the TGI (T-47D breast)?
A: > 100 µM

Q: And the TGI (OVCAR-3 ovarian)?
A: > 100 µM

Q: What about the TGI (COLO 205 colon) of the same compound?
A: > 100 µM

Q: And the TGI (M14 melanoma)?
A: > 100 µM

Q: What about the TGI (CCRF-CEM leukemia) of the same compound?
A: 0.0344 µM

Q: What about the TGI (SNB-75 CNS) of the same compound?
A: > 100 µM

Q: What about the TGI (HS 578T breast) of the same compound?
A: > 100 µM

Q: What about the TGI (NCI-H522 lung) of the same compound?
A: > 100 µM

Q: What about the TGI (NCI/ADR-RES ovarian) of the same compound?
A: > 100 µM

Q: And the TGI (LOX IMVI melanoma)?
A: > 100 µM

Q: What about the TGI (HCT-15 colon) of the same compound?
A: > 100 µM

Q: What about the TGI (SW-620 colon) of the same compound?
A: > 100 µM

Q: What about the TGI (HOP-92 NSCLC) of the same compound?
A: 63.7 µM

Q: And the TGI (786-0 renal)?
A: > 100 µM
